Assay results reported in patent US8299048B2, “Hexahydrocyclopentyl[f]indazole sulfonamides and derivatives thereof as selective glucocorticoid receptor modulators” (Merck Sharp & Dohme Corp., priority 2008, dated 2012).

How the values were obtained:
human GR [1] = biological target: T1, human GR (Homo sapiens, UniProt P04150); assay: Transrepression Assay (GITAR), TNFα-β-lactamase reporter in U937 cells; assay type: cell-based; parameters: U937 cells contain an endogenous glucocorticoid receptor (GR); endogenous in cells; host or cells: U937 cells stably transfected with the TNF-alpha promoter/beta-lactamase reporter; settings: for GITAR > GRAMM % SEP: GITAR Emax minus GRAMMER Emax; for EC50: U937 cells, inflection point, read-out: Transrepression U937 Cells GITAR IP
T1 sequence (P04150 1-777): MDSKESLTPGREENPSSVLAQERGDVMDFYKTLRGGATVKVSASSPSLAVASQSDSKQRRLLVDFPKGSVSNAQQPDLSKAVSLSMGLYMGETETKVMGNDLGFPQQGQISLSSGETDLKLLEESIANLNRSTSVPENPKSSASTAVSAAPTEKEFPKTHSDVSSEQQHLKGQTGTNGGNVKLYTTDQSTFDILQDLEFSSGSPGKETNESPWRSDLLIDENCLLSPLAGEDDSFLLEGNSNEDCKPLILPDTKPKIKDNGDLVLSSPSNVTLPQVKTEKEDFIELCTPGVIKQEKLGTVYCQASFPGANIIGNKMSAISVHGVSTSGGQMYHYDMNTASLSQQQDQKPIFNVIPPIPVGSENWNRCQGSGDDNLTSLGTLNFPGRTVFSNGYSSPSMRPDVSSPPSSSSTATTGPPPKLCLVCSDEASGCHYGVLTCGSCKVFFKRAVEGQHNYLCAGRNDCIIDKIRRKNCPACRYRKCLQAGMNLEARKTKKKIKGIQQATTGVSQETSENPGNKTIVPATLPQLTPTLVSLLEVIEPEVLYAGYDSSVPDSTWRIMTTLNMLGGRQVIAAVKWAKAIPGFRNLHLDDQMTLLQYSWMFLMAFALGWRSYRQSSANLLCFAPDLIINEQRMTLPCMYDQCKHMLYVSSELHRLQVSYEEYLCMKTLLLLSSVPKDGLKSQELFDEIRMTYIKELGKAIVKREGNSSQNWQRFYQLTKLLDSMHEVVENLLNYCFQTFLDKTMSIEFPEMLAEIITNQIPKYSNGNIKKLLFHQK
Procedure, shortened: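 Repression normalised to 100 nM dexamethasone (100%), measured with CCF2-AM β-lactamase substrate after 70–90 min at room temperature. Stably transfected U937 cells were exposed to compound 30–45 min, then to PMA (5 ng/ml final) plus LPS (100 ng/ml final) overnight (~18 hr), 37° C.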

human GR [2] = biological target: T1, human GR; assay: Trans-Activation Modulation of Glucocorticoid Receptor (GRAMMER), MMTV-LUC reporter, agonist mode; assay type: cell-based; parameters: endogenous in cells; settings: for Emax: A549, A549 cells, maximum activity, read-out: Transactivation A549 Cells GRAMMER Emax; for EC50: A549 cells, inflection point, read-out: Transactivation A549 Cells GRAMMER IP
Procedure, shortened: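 Readout is luciferase from a modified MMTV LTR promoter after 24 h compound exposure alongside 10 nM dexamethasone (100% activity reference), DMSO ≤1%.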

[3] = U-937, U937 cells, maximum activity, read-out: Transrepression U937 Cells GITAR Emax
[4] = U-937, activity repressed by 100 nM dexamethasone alone set as 100%, read-out: maximal activity in the transrepression (GITAR) assay

| SMILES | GITAR > GRAMM % SEP (human GR [1]) [%] | EC50 (human GR [1]) [nM] | Emax (human GR [1]; [3]) [%] | Emax (human GR [1]; [4]) [%] | Emax (human GR [2]) [%] | EC50 (human GR [2]) [nM] |
| --- | --- | --- | --- | --- | --- | --- |
| C[C@]12Cc3cnn(-c4ccc(F)cc4)c3C=C1CC[C@@H]2CN(CC#N)S(=O)(=O)c1ccc(F)cc1 [Example 46, N-(cyanomethyl)-4-fluoro-N-{[(4αR,5S)-1-(4-fluorophenyl)-4α-methyl-1,4,4α,5,6,7-hexahydrocyclopenta[f]indazol-5-yl]methyl}benzenesulfonamide] | 2.1 | 187 | 85.5 | > 5 | 83.3 | 373 |
| C[C@H](O)CN(C[C@H]1CCC2=Cc3c(cnn3-c3ccc(F)cc3)C[C@@]21C)S(=O)(=O)Cc1ccccc1C(N)=O [Example 185, 2-[({{[(4αR,5S)-1-(4-fluorophenyl)-4α-methyl-1,4,4α,5,6,7-hexahydrocyclopenta[f]indazol-5-yl]methyl}[(2S)-2-hydroxypropyl]amino}sulfonyl)methyl]benzamide] | 43.1 | 676 | 63 | > 5 | 19.9 | 250 |
| C[C@]12Cc3cnn(-c4ccc(F)cc4)c3C=C1CC[C@@H]2CN(CC#N)S(=O)(=O)c1ccccc1Cl [Example 50, 2-chloro-N-(cyanomethyl)-N-{[(4αR,5S)-1-(4-fluorophenyl)-4α-methyl-1,4,4α,5,6,7-hexahydrocyclopenta[f]indazol-5-yl]methyl}benzenesulfonamide] | 46.2 | 959 | 61.3 | > 5 | 15.1 | 949 |
| Cc1noc(C)c1S(=O)(=O)N(CC1CCCO1)C[C@H]1CCC2=Cc3c(cnn3-c3ccc(F)cc3)C[C@@]21C (stereo partly drawn) [Example 170, N-{[(4αR,5S)-1-(4-fluorophenyl)-4α-methyl-1,4,4α,5,6,7-hexahydrocyclopenta[f]indazol-5-yl]methyl}-3,5-dimethyl-N-(tetrahydrofuran-2-ylmethyl)isoxazole-4-sulfonamide] | 11.8 | 759 | 87.7 | > 5 | 76 | 432 |
| CCN(C[C@H]1CCC2=Cc3c(cnn3-c3ccc(F)cc3)C[C@@]21C)S(=O)(=O)CC(F)(F)F [Example 179, N-ethyl-2,2,2-trifluoro-N-{[(4αR,5S)-1-(4-fluorophenyl)-4α-methyl-1,4,4α,5,6,7-hexahydrocyclopenta[f]indazol-5-yl]methyl}ethanesulfonamide] | 31.2 | 440 | 96.5 | > 5 | 65.4 | 277 |
| C[C@H](O)CN(C[C@H]1CCC2=Cc3c(cnn3-c3ccc(F)cc3)C[C@@]21C)S(=O)(=O)Cc1ccccc1C(=O)O [Example 183, 2-[({{[(4αR,5S)-1-(4-fluorophenyl)-4α-methyl-1,4,4α,5,6,7-hexahydrocyclopenta[f]indazol-5-yl]methyl}[(2S)-2-hydroxypropyl]amino}sulfonyl)methyl]benzoic acid] | 8.2 | 3310 | 23.2 | > 5 | 15 | 4500 |
| C[C@]12Cc3cnn(-c4ccc(F)cc4)c3C=C1CC[C@@H]2CN(CC#N)S(=O)(=O)c1ccccc1F [Example 43, N-(cyanomethyl)-2-fluoro-N-{[(4αR,5S)-1-(4-fluorophenyl)-4α-methyl-1,4,4α,5,6,7-hexahydrocyclopenta[f]indazol-5-yl]methyl}benzenesulfonamide] | 35.8 | 1100 | 71.8 | > 5 | 36 | 470 |
| COC(=O)c1ccccc1CS(=O)(=O)N(C[C@H]1CCC2=Cc3c(cnn3-c3ccc(F)cc3)C[C@@]21C)C[C@H](C)O [Example 181, methyl 2-[({{[(4αR,5S)-1-(4-fluorophenyl)-4α-methyl-1,4,4α,5,6,7-hexahydrocyclopenta[f]indazol-5-yl]methyl}[(2S)-2-hydroxypropyl]amino}sulfonyl)methyl]benzoate] | 24.7 | 263 | 79.2 | > 5 | 54.6 | 364 |

More lines, in order of falling EC50 (human GR [1]), values ahead:

| GITAR > GRAMM % SEP (human GR [1]) [%] | EC50 (human GR [1]) [nM] | Emax (human GR [1]; [3]) [%] | Emax (human GR [1]; [4]) [%] | Emax (human GR [2]) [%] | EC50 (human GR [2]) [nM] | SMILES |
| --- | --- | --- | --- | --- | --- | --- |
| 56.1 | 3030 | 68.5 | > 5 | 12.4 | 1660 | C[C@]12Cc3cnn(-c4ccc(F)cc4)c3C=C1CC[C@@H]2CNS(=O)(=O)Cc1cccnc1 [Example 169, N-{[(4αR,5S)-1-(4-fluorophenyl)-4α-methyl-1,4,4α,5,6,7-hexahydrocyclopenta[f]indazol-5-yl]methyl}-1-pyridin-3-ylmethanesulfonamide] |
| 49.1 | 1720 | 69.8 | > 5 | 20.6 | 1190 | C[C@]12Cc3cnn(-c4ccc(F)cc4)c3C=C1CC[C@@H]2CN(CCO)S(=O)(=O)c1ccc(F)c(Cl)c1 [Example 19, 3-chloro-4-fluoro-N-{[(4αR,5S)-1-(4-fluorophenyl)-4α-methyl-1,4,4α,5,6,7-hexahydrocyclopenta[f]indazol-5-yl]methyl}-N-(2-hydroxyethyl)benzenesulfonamide] |
| 34.6 | 777 | 39.5 | > 5 | 4.9 | 443 | Cn1nc(C(F)(F)F)cc1-c1ccc(S(=O)(=O)N(CC#N)C[C@H]2CCC3=Cc4c(cnn4-c4ccc(F)cc4)C[C@@]32C)s1 [Example 35] |
| 34.8 | 662 | 78.8 | > 5 | 44 | 483 | C[C@]12Cc3cnn(-c4ccc(F)cc4)c3C=C1CC[C@@H]2CN(CC#N)S(=O)(=O)c1ccc(C#N)cc1 [Example 28, 4-cyano-N-(cyanomethyl)-N-{[(4αR,5S)-1-(4-fluorophenyl)-4α-methyl-1,4,4α,5,6,7-hexahydrocyclopenta[f]indazol-5-yl]methyl}benzenesulfonamide] |
| 10.0 | 638 | 13 | > 5 | 3 | 994 | C[C@]12Cc3cnn(-c4ccc(F)cc4)c3C=C1CC[C@@H]2CN(CC#N)S(=O)(=O)c1ccc(Cl)c(C(F)(F)F)c1 [Example 27, 4-chloro-N-(cyanomethyl)-N-{[(4αR,5S)-1-(4-fluorophenyl)-4α-methyl-1,4,4α,5,6,7-hexahydrocyclopenta[f]indazol-5-yl]methyl}-3-(trifluoromethyl)benzenesulfonamide] |
| 33.7 | 555 | 63.1 | > 5 | 29.4 | 868 | Cn1cc(S(=O)(=O)N(CC#N)C[C@H]2CCC3=Cc4c(cnn4-c4ccc(F)cc4)C[C@@]32C)c(C(F)(F)F)n1 [Example 32, N-(cyanomethyl)-N-{[(4αR,5S)-1-(4-fluorophenyl}-4α-methyl-1,4,4α,5,6,7-hexahydrocyclopenta[f]indazol-5-yl]methyl}-1-methyl-3-(trifluoromethyl)-1H-pyrazole-4-sulfonamide] |
| 17.6 | 316 | 74.5 | > 5 | 56.9 | 246 | Cc1noc(C)c1S(=O)(=O)N(C)C[C@H]1CCC2=Cc3c(cnn3-c3ccc(F)cc3)C[C@@]21C [Example 176, N-{[(4αR,5S)-1-(4-fluorophenyl)-4α-methyl-1,4,4α,5,6,7-hexahydrocyclopenta[f]indazol-5-yl]methyl}-N,3,5-trimethylisoxazole-4-sulfonamide] |
| 16.6 | 35.5 | 19.8 | > 5 | 3.2 | 82.8 | C[C@]12Cc3cnn(-c4ccc(F)cc4)c3C=C1CC[C@@H]2CN(CC#N)S(=O)(=O)c1cccc2ccccc12 [Example 40, N-(cyanomethyl)-N-{[(4αR,5S)-1-(4-fluorophenyl)-4α-methyl-1,4,4α,5,6,7-hexahydrocyclopenta[f]indazol-5-yl]methyl}naphthalene-1-sulfonamide] |
